SMILES	melting point
COc1ccc2sc3c(c2c1)SCCNC3=O	209 to 210 °C
CCN(CC)c1ccc(/C=C/C(=O)CC(=O)/C=C/c2ccc3cc[nH]c3c2)c(OCc2ccccn2)c1	92 to 96 °C
O=C(c1ccccc1)C1(c2ccccc2)COCO1 (configuration not stated)	66 to 66.5 °C
CC(=C[N+](=O)[O-])NCCN(C)Cc1ccc(Cl)nc1	78 to 80 °C
Nc1ccccc1NC(=O)c1ccc(NC(=O)CO)cc1	221 to 223 °C
O=CNc1ccccc1C1=NN(c2ccc(Cl)cc2)C(=O)C1	170 to 172 °C
CCSc1ccc(CC(=O)NC(NC(Cc2ccccc2C)=NC#N)C(C)(C)C)cc1 (configuration not stated)	196 to 198 °C
Cc1ccc(C2CCN(c3c(C)c(C)c4c(c3C)[C@@H](c3ccc(C)cc3)C(C)(C)O4)CC2)cc1	165 to 167 °C
CC(CN(C)C)CC(CNC(=O)NCCCl)(c1ccc(F)cc1)c1ccc(F)cc1 (configuration not stated)	105 to 107 °C
O=C(CC1(c2cccc(C(F)(F)F)c2F)CC1)C(=O)Nc1ccc2c(c1)COC2=O	165 to 166 °C
Cc1cccc(-c2nc3cccnn3c2-c2ccnc(NC(=O)c3ccccc3)c2)c1	178 to 180 °C
O=c1[nH]sc2c1c(=O)c1cc(F)c(F)c(F)c1n2C1CC1	243 to 245 °C
CC(C#N)c1ccc(Cl)nn1 (configuration not stated)	65 °C
CSc1nnc(-c2ccccc2)n1C	134 to 135 °C
CCOC(=O)COC1OCC[C@@H]1NC(=O)[C@H](Cc1ccccc1)NC(=O)OCc1ccccc1 (some centres not stated)	103 to 106 °C
CC(=O)Nc1c(C(=O)c2cccc(NS(C)(=O)=O)c2)[nH]c2cc(Cl)ccc12	133 to 142 °C
O=c1c2cc(OCc3ccccc3)ccc2[nH]c2c([N+](=O)[O-])cc([N+](=O)[O-])c(Cl)c12	217 to 220 °C
ICCCn1c2ccccc2c2ccccc21	152 to 156 °C
N#Cc1ccc(-c2ccc(Cl)c(OC3SCC(O)C(O)C3O)c2)cn1 (configuration not stated)	192 °C
Cn1nnc(N(Cc2ccccc2)C(=O)C2CCCC2)n1	54 °C
CCCOc1ccc(S(=O)(=O)NCCc2c[nH]cn2)cc1-c1nc2cc(N)c([N+](=O)[O-])cc2c(=O)[nH]1	169 to 172 °C
CC(C)(C)c1cc(Nc2cccc(OCC(=O)O)c2)cc(C(C)(C)C)c1O	127 to 128 °C
COC(=O)c1c(Cl)cc(Cl)cc1NC(=O)CSc1ccc(NC(=O)Cc2cccc(Br)c2)cc1	177 to 180 °C
CCOC(=O)C=CCOc1ccc(C23CC4CC(CC(C4)C2)C3)cc1	91 to 93 °C
Nc1ccn(CC(O)CO)c(=O)n1 (configuration not stated)	169 to 171 °C
CC[C@@H](COC)n1cc(Cl)nc(N2CCc3cc(Br)cc(Cl)c32)c1=O	121 to 122 °C

SMILES	melting point
O=C(O)CCc1ccc(SCCC(c2ccccc2)(c2ccccc2)c2ccccc2)cc1	51 to 53 °C
CC(C)(C)CNC(=O)c1ccc(Br)c(C(=O)O)c1	176 to 179 °C
COC(=O)C=C1Oc2ccccc2Oc2ccccc21	81 to 83 °C
CCCC(=O)Nc1n[nH]c2cc(-c3ccncc3)ccc12	200 °C
CC(C)c1nc(-c2cccnc2)c[nH]c1=O	200 to 202 °C
CC(C)SCCOc1ccc(COc2cnn(C(C)(C)C)c(=O)c2Cl)cc1	82 to 84.5 °C
CCCCCN1C(=O)C2(COc3ccc(-c4cncnc4)cc32)c2ccccc21 (configuration not stated)	115 to 117 °C
CCCn1c(=O)c(C(=O)OCC)c(N2CCN(C(=O)c3cccs3)CC2)c2cccnc21	92 to 96 °C
COCc1ccc(Oc2cncc3sc(C(N)=O)cc23)cc1	168 °C
c1ccc(-c2ccc3[nH]c4ccc(-c5ccccc5)cc4c3c2)cc1	145 to 147 °C
COc1ccc(C2NC(=O)C2OC(C)=O)cc1 (configuration not stated)	110 to 111 °C
Cc1c(Cl)c(F)cc(C(=O)O)c1Cl	167 to 169 °C
Cc1cc(CC(=O)O)cc(Cc2nc3c(F)c(F)cc(F)c3s2)c1	127 to 129 °C
CN(Cc1ccc(NC(=O)C2=Cc3cc(-c4ccc(Cl)cc4)ccc3OCC2)cc1)C1CCOCC1	191 to 192 °C
C=C(c1ccc(OC)cc1)c1cc(C(=C)c2ccc(OC)cc2)cc(C(=C)c2ccc(OC)cc2)c1	116 to 118 °C
CC(C)(C)OC(=O)C[C@H](NC(=O)c1cccc(NC(=O)Cc2ccc(C(=N)N)cc2)c1)C(=O)N[C@@H](Cc1ccccc1)C(=O)OC(C)(C)C	125 °C
CCCCCCCCCCCC1=NCCN1	82 °C
CCCCCCCCCCCCCCOc1cc(OCCCCCCc2cccc(O)c2O)cc(C(=O)OC)c1	77 to 79 °C
CNC(=O)c1sc2cnccc2c1Oc1ccc(COC)cc1	163 to 164 °C
COC(=O)CCc1cc2cc(Cl)ccc2n1S(=O)(=O)c1ccc(C(F)(F)F)cc1	82 to 86 °C
N#Cc1ccc(-c2nc(COc3ccc(CCCn4ccnc4)cc3)co2)s1	73 to 74 °C
O=C(Cl)c1cc(Oc2ccc(Br)cc2)cc(C(=O)Cl)c1	80 to 81 °C
O=C1CCC(O)(c2ccccc2Cc2ccccc2)CC1	138 to 140 °C
Nc1ccc(Cl)cc1C(=O)c1cccc(Cl)c1	118 to 119 °C
COc1cc2cn(-c3nccs3)nc2cc1OC	184 to 187 °C
c1cc(N=C2SCC3Cc4sccc4CN23)c2ccncc2c1 (racemic)	198 °C

SMILES	melting point
CC(C)(C)OC(=O)N[C@@H](CC(N)=O)C(=O)N1CCN(Cc2ccccc2)CC1	98 to 100 °C
COc1ccc(NC2=NN(c3cccnc3)CC2)cc1	116 to 119 °C
CCOc1cc(-c2cc(C(F)(F)F)n3ncc(C(=O)Nc4cccc(S(N)(=O)=O)c4)c3n2)ccc1C(F)(F)F	253 °C
CCOC(=O)NC(=O)CC(=O)NC(=O)OCC	177 to 178 °C
CCOC(=O)Cc1ccc([N+](=O)[O-])c(OCC(F)(F)F)c1	76 to 77 °C
CCCCCCCCc1ccc(C(=O)Cc2cccc(C#N)c2)cc1	59 to 64 °C
COc1ccc(C(=O)/C=C/N(C)C)cc1COC(=O)C(C)(C)C	82 to 84 °C
Clc1ccc(-c2cc(CCC3CCCNC3)c3ccccc3n2)cc1 (configuration not stated)	155 °C
C=C1CC2(CC)C(=O)CC(O)C2C2CCC3=CC(=O)CCC3C12 (configuration not stated)	228 °C
CCOC(=O)c1cnc(Nc2cccc(C(F)(F)F)c2)[nH]c1=O	229 to 230 °C
N#Cc1cn(COC(CO)CO)c2ncnc(N)c12	195 °C
COc1c(NC(=O)c2ccc(C)c(-n3cc(C(=O)Cl)nn3)c2)cc(C(C)(C)C)cc1NS(C)(=O)=O	205 to 207 °C
CCCCc1nc2c(N)nc3cccnc3c2n1CCCCN1CC=Cc2cc(C(N)=O)ccc21	190 to 191 °C
CC(CC(C)C)=Nc1cc2c(cc1F)OCC(=O)N2	113 to 115 °C
CCCCCCCCCCCc1nnc2n1-c1ccccc1C(c1ccccc1)OC2 (configuration not stated)	83 to 84 °C
OC1CSC(Oc2ccc(-c3ccc(F)nc3)nc2F)C(O)C1O (configuration not stated)	141 to 144 °C
CCOC(=O)c1[nH]c(=O)c(CC(C)C)[n+]([O-])c1N	179 to 181 °C
COC(=O)c1cnccc1NC(=O)C(C)CS (configuration not stated)	54 to 56 °C
CC1=NCC2CN=C(c3ccccc3F)c3cc(Cl)ccc3N12 (configuration not stated)	142 to 144 °C
CC(C)Cc1c(C(=O)O)c(C(F)F)nc(C(F)(F)F)c1C(C#N)=C1CCCO1	192 to 193 °C
CCCNC(=O)CC=Cc1ccc2c(c1)c(Cc1ccc(C(=O)OC)cc1OC)cn2CCC	140 to 142 °C
CCOP(=O)(Cc1ccc(C(=O)Nc2ccccc2C(=O)O)cc1)OCC	171 to 172 °C
CCCCCCCCCCOc1cccc(C(=O)N(CC(=O)O)CC(=O)O)c1	87 to 90 °C
COc1ccc(-c2cc(CO)nn2-c2ccc(S(N)(=O)=O)cc2)cc1I	196 to 198 °C
Cc1cc(O)ccc1Nc1nc(N)ncc1Oc1ccc(Cl)cc1	199 to 201 °C
CCCCCC(=O)NC1(OCC)CC1	47 to 48.5 °C

SMILES	melting point
COC(=O)[C@@]12CO[C@@H](C(C)(C)C)N1C(=O)[C@@H](C)C2	107 to 108 °C
CC[C@H](C)C(=O)c1ccc(-c2ccc(OC)cc2)cc1	119 to 120 °C
COc1ccc(S(=O)(=O)NC(C)(C)C(=O)NO)cc1	122 to 125 °C
COC(=O)c1c[nH]c(=O)c2ccccc12	258 to 260 °C
O=C1CCC(c2ccc([N+](=O)[O-])cc2)CC1	160 to 162 °C
N#Cc1cccc(C2=NNCCC2n2cc(Cl)cn2)c1 (configuration not stated)	171 °C
C=CCNCc1noc(-c2ncn3c2CN(C)C(=O)c2c(Cl)cccc2-3)n1	171 to 174 °C
CC(C)(C)OC(=O)NCC12CCC1CN(Cc1ccccc1)C2 (configuration not stated)	78 to 79 °C
CCOC(=O)c1c(C)nc2c(cnn2CCC(C)CC)c1N (configuration not stated)	217 to 222 °C
Nc1nc(N)nc(OCc2ccccc2)n1	184 to 185 °C
Brc1ccc(-c2ccncc2)cc1	123 to 124 °C
Nc1c(CC(=O)O)cccc1Oc1ccc(Cl)cc1Cl	123 to 124 °C
O=S(=O)(NCC1CCCO1)c1ccc(Nc2nc(OCC3CCCCC3)c3nc[nH]c3n2)cc1 (configuration not stated)	134 to 136 °C
CC1COc2c(F)c(F)cc3c(=O)[nH]c(=O)n1c23 (configuration not stated)	259 to 261 °C
OCc1cccc2nc(-c3ccccc3)oc12	131 °C
CN(C)c1ccc2cc(-c3ccn4ccnc4c3C#N)ccc2c1	268 to 269 °C
NC(=O)[C@@H]1CCCN1C(=O)CNC(=O)OCc1ccccc1	142 to 143 °C
CCn1cc(CC(=O)O)c(OCCCc2ccc(Cc3ccccn3)cc2OC(C)C)n1	97 to 98 °C
COC(=O)CCC#Cc1ccc(C(=C2CC(C)(C)CC(C)(C)C2)c2ccc(O)cc2)cc1	159 to 160 °C
O=C1C(=O)c2ccccc2C2=C1SCC1(CCN(C(=O)C(Cl)c3ccccc3)CC1)O2 (configuration not stated)	125 to 126 °C
CCOC(=O)c1c(C(=O)O)ccc(OC)c1OC	148 to 149 °C
O=C1C[C@@H](O)C[C@H](CCc2c(Cl)cc(Cl)c3ccc(Cl)cc23)O1 (relative stereo)	111 to 115 °C
CC(=O)N(C)c1ccc2c(c1)cc(C(=O)c1ccc(C)cc1)n2C	193 to 195 °C
Cc1ccc(O)c(Cl)n1	190 to 191 °C

From a melting point compilation (Tetko et al.; mined from patent text by program, amines drawn as free bases though some values may be those of a salt)
